Reference: patent publication US10155038B2, “Cells prepared by transient transfection and methods of use thereof” (Yale University, priority 2007, dated 2018)

Legend:
[1] = tested on: EML cells; experiment: GFP transfection of EML cells by nucleofection, FACS; assay type: cell-based, mouse; settings: FIG. 2B; for GFP expression when ATP in the E-PAP reaction was replaced by ATP analog: without tail extension
Description: Electroporation was performed using an Amaxa NUCLEOFECTOR™-II (Amaxa Biosystems, Cologne, Germany) in accordance with manufacturer recommendations. Jurkat and B cell lines were transfected using NUCLEOFECTOR™-II solution V and the set of recommended regimes for electroporation. EML cells were transfected using solutions V, T and R and different regimes of electroporation. T lymphocytes were transfected using T cell NUCLEOFECTOR™-II solution and different regimes of electroporation. Alternative methods of nucleic acids delivery were also used: cationic liposome mediated transfection was performed using LIPOFECTIN® or LIPOFECTAMIN® (Invitrogen). Electroporation was also performed with the ECM 830 (BTX) (Harvard Instruments, Boston, Mass.) or the Gene Pulser II (BioRad, Denver, Colo.), Multiporator (Eppendorf, Hamburg Germany). All procedures were performed as directed by the manufacturers. pmaxGFP plasmid DNA (Amaxa Biosystems) was used as the DNA control. The efficiency of transfection (ET) was determined 18h after transfection by fluorescence activated cell sorting (FACS). In some experiments transfectants were further analyzed each 24h until GFP could not longer be detected. Cell viability was determined by trypan blue dye exclusion.
Flow cytometry was performed using the fluorescent activated cell sorting (FACS®) assay. Flow cytometry was performed on cell subpopulations was performed at the Yale Cancer Center Flow Cytometry Shared Resource, using a FACS® Calibur flow cytometer (Becton-Dickinson, San Jose, Calif.) equipped with 488 nm laser and the standard filter setup. Fluorescence signals were collected on a logarithmic scale. A minimum of ten thousand cells were interrogated for each sample. Analysis of data was performed using FlowJo software (Tree Star, Inc., San Carlos, Calif.). The expression efficiency was calculated as the difference between the geometric mean of fluorescence of the transfectants and control (mock transfected) cells. […]

[2] = tested on: mantle cell lymphoma (MCL) cell lines; experiment: Viability of MCL cell lines, CELLTITER-GLO assay; assay type: cell-based
From the text: FIG. 13 is a line graph showing viability (percent) of various mantle cell lymphoma (MCL) cancer cell lines (SP-53, SP-49, Granta, JEKO, and TVM) following treatment with various concentrations (M) of the BH3 mimetic ABT-737.
FIGS. 14A-14D are plots showing viability (Relative Light Units) following a CELLTITER-GLO® assay of various mantle cell lymphoma (MCL) cancer cell lines: JVM-2 (FIG. 14A), Granta-519 (FIG. 14B), JEKO-1 (FIG. 14C), and SP-53 (FIG. 14D) following treatment with various concentrations (M) of the BH3 mimetic BIM SAHB (-▪-), or a BIM SAHB R153D variant control (-●-).
A panel of mantle cell lymphoma (MCL) cell lines were exposed to BIM SAHBA, BIM SAHBA(R153D), or vehicle alone for 24 hours in OptiMEM medium followed by viability testing using the CELLTITER-GLO® (Promega) assay.

[3] = tested on: GFP mRNA; experiment: siRNA inhibition of GFP mRNA expression in Jurkat cells; assay type: cell-based; settings: Jurkat cells with EGFP mRNA; the day after transfection
From the text: Jurkat T cells were electroporated with different amount of FITC labeled siRNA. The condition and the kinetics of siRNA transfection were identical to mRNA transfection.

[4] = tested on: metastatic melanoma; settings: cited from earlier work
[5] = tested on: caspase 3/7; experiment: Caspase 3/7 activation in MCL cell lines; assay type: cell-based; settings: JVM-2, Granta-519, JEKO-1, SP-53
From the text: FIGS. 15A-15D are plots showing caspase 3/7 activation (Relative Light Units) in various mantle cell lymphoma (MCL) cancer cell lines: JVM-2 (FIG. 15A), Granta-519 (FIG. 15B), JEKO-1 (FIG. 15C), and SP-53 (FIG. 15D) following treatment with various concentrations (μM) of the BH3 mimetic SAHB (right hand bar in each pair), or a SAHB R153D variant control (left hand bar in each pair).

Nc1ncnc2c1nnn2[C@@H]1O[C@H](CO)[C@@H](O)[C@H]1O [8-azaadenosine]
GFP expression when ATP in the E-PAP reaction was replaced by ATP analog [1]: increased

CN(C)CC[C@H](CSc1ccccc1)Nc1ccc(S(=O)(=O)NC(=O)c2ccc(N3CCN(Cc4ccccc4-c4ccc(Cl)cc4)CC3)cc2)cc1[N+](=O)[O-] [ABT-737]
effect on viability ([2]; FIG. 13, SP-53, SP-49, Granta, JEKO, JVM): reduced viability in a subset of the MCL cell lines

CO[C@H]1[C@@H](O)[C@H](n2c[n+](C)c3c(=O)[nH]c(N)nc32)O[C@@H]1COP(=O)(O)OP(=O)(O)OP(=O)(O)OC[C@H]1O[C@@H](n2cnc3c(=O)[nH]c(N)nc32)[C@H](O)[C@@H]1O [ARCA, 3′-O-Methyl-m7G[5′]ppp[5′]G]
increase of GFP expression compared to the standard capping procedure ([1]; GFP mRNA capped with ARCA): two-fold increase

Nc1ncnc2c1ncn2[C@@H]1O[C@H](CO)C[C@H]1O [cordycepin]
GFP expression when ATP in the E-PAP reaction was replaced by ATP analog [1]: increased

anti-GFP siRNA: anti-GFP siRNA (GCAAGCUGACCCUGAAGUUCAU) (chemistry not given here)
inhibition of GFP mRNA expression [3]: 80%

nivolumab: anti-PD-1 antibody
overall response rate [4]: 30-40%

synthetic peptide modeled on the BIM BH3 death domain with all-hydrocarbon crosslink; IWIAQELRXIGDXFNAYYARR (SEQ ID NO:1) [BIM SAHBA]
EC50s, impaired viability ([2]; 24 hours, OptiMEM medium, panel of MCL cell lines): low micromolar range
caspase 3/7 activation [5]: correlated with caspase 3/7 activation
